The results in this text go back to article PMC10744391, “Sulfated Triterpene Glycosides from the Far Eastern Sea Cucumber Cucumaria djakonovi: Djakonoviosides C1, D1, E1, and F1; Cytotoxicity against Human Breast Cancer Cell Lines; Quantitative Structure–Activity Relationships” (Marine Drugs, 2023).

Structures are written as SMILES. “Also recorded” adds a separate entry of the source. Counter-ions that a name gives are not always drawn. Like-named read-outs stand apart in the source and are kept apart here.

The test system of one data set is human erythrocytes. In words: Hemolytic activity against human erythrocytes. In kind it is cell-based. To be noted: human erythrocytes; for HC50: Erythrocyte, 1 h at 37 °C, dose causing lysis of 50% erythrocytes, read-out: ED50, Erythrocytes (hemolytic activity); for hemolytic activity (in words): concentration range up to 50 µM. The procedure: Human blood (B(III) Rh+) was used to obtain erythrocytes by centrifuging 450× g three times for 5 min with phosphate-buffered saline (PBS) (pH 7.4) at 4 °C on centrifuge LABOFUGE 400R (Heraeus, Hanau, Germany). Ice-cold PBS (pH 7.4) was used for resuspension of erythrocytes residue to a final optical density of 1.5 at 700 nm, which was kept on ice. Then, 20 µL of tested compound solution or control—djakonovioside A1 [5]—were added to 180 µL of erythrocyte suspension in V-bottom 96-well plates and exposed for 1 h at 37 °C. Next, centrifugation at 900× g for 10 min on laboratory centrifuge LMC-3000 (Biosan, Riga, Latvia), led to layers’ separation, and 100 µL of supernatant was carefully decanted and transferred into new flat-plate each. The values of erythrocyte lysis were measured on microplate photometer Multiskan FC (Thermo Fisher Scientific, Waltham, MA, USA) at λ = 570 nm as hemoglobin concentration in supernatant. The effective dose, causing lysis of 50% erythrocytes (ED50), was calculated with SigmaPlot 14.0 software. All the experiments were carried out in triple repetitions, p ≤ 0.05.

A further data set is described as follows: in vitro. It counts as cell-based. To be noted: human; for IC50: MTT, 24 h incubation, read-out: Cytotoxicity, IC50, MCF-10A.
Data set [1] relates to MCF-7 human breast cancer cell line. In words: cells. It counts as cell-based. To be noted: for IC50: read-out: Cytotoxicity, IC50, MCF-7; for Selectivity Index (SI), MCF-7: ratio of IC50 for healthy (MCF-10A) and cancer cells.
In data set [2] the test system is T-47D human breast cancer cell line. In words: cells. It counts as cell-based. To be noted: for IC50: Homo sapiens, T47D, read-out: Cytotoxicity, IC50, T-47D.
The subject of data set [3] is triple-negative MDA-MB-231 human breast cancer cell line. In words: cells. In kind it is cell-based. To be noted: for IC50: Homo sapiens, read-out: Cytotoxicity, IC50, MDA-MB-231; for Selectivity Index (SI), MDA-MB-231: ratio of IC50 for healthy (MCF-10A) and cancer cells.
In data set [4] the test system is MDA-MB-231 cells. In words: Wound scratch migration assay, MDA-MB-231. It counts as cell-based, human. The settings on record: MDA-MB-231, concentration 1 μM, 24 h of incubation. The procedure: (§1) Attached to special migration plate plastic bottom MCF-7 or MDA-MB-231 cells were separated by a silicone insert (Culture-insert 2 Well 24, ibiTreat). After removing an insert, gap between the cells was 500 ± 50 μm. Cell debris and floating cells were deleted by washing twice with PBS; 10 μM of 5 mM initial solution of CFDA SE ((5,6)-carboxyfluorescein succinimidyl ester) (LumiTrace CFDA SE kit, Lumiprobe, Moscow, Russia) in DMSO was dissolved in PBS and added to cells for 5 min at 37 °C; after washing twice with PBS, the fresh culture medium was added. Then, cells were treated with various concentrations of glycosides or culture medium only (vehicle control) and left for 24 and 72 h. Cell migration into the wound area was observed under a fluorescence microscope (MIB-2-FL, LOMO, Russia) with objective 10× magnification.

Data set [5] relates to human breast cancer cell lines MCF-7, T-47D and MDA-MB-231. In words: Cytotoxic activity (MTT assay), statements on the human breast cancer cell lines together. It counts as cell-based. The source says: Human erythrocytes were purchased from the Station of Blood Transfusion, Vladivostok. Human mammary epithelial cell line MCF-10A CRL-10317, human breast cancer cell lines T-47D HTB-133, MCF-7 HTB-22, and MDA-MB-231 CRM-HTB-26 were received from ATCC (Manassas, VA, USA). Culturing conditions: medium of RPMI-1640 with 1% penicillin/streptomycin (Biolot, St. Petersburg, Russia) and 10% fetal bovine serum (FBS) (Biolot, St. Petersburg, Russia) for T-47D cell line; Minimum Essential Medium (MEM) with 1% penicillin/streptomycin sulfate (Biolot, St. Petersburg, Russia) and FBS (Biolot, St. Petersburg, Russia) to a final concentration of 10% for MCF-7 and MDA-MB-231 cells; DMEM/F12 medium with 10% FBS, 20 ng/mL EGF, […], 100 ng/mL cholera toxin, 10 μg/mL insulin, and 1% penicillin/streptomycin (Bioinnlabs, Russia) for MCF-10A cell line.
Methodology: to each well of 96-well plates, the cell suspension (180 µL) with solution (20 µL) of tested glycoside in the certain concentration was placed (MCF-10A, MCF-7, T-47D, and MDA-MB-231—7 × 10^3 cells per well) and incubated in the atmosphere with 5% CO2 at 37 °C for 24 h. The times of incubation of cucumarioside A2-5 (6) and djakonoviosides C1 (1) and E1 (3), at concentrations of 0.5–12.0 μM with T-47D, MCF-7, or MDA-MB-231 cells, were 24, 48, and 72 hrs. Then, the solutions of tested compounds with medium were replaced by 100 µL of fresh medium, and 10 µL of 3-(4,5-dimethylthiazol-2-yl)-2,5-diphenyltetrazolium bromide (MTT) (PanReac, AppliChem, Darmstadt, Germany) stock solution (5 mg/mL) was added to each well and incubated for 4 h, followed by the addition of 100 µL of SDS-HCl solution (1 g SDS/10 mL d-H2O/17 µL 6 N HCl) and further incubated for 18 h. Multiskan FC microplate photometer (Thermo Fisher Scientific, Waltham, MA, USA) was used to measure the absorbance of the converted dye formazan at 570 nm. The concentration caused 50% cell metabolic activity inhibition (IC50), which expresses the cytotoxic activity of each glycoside. The experiments were conducted in triplicate, p ≤ 0.05.

Data set [6] deals with MDA-MB-231 cells. In words: Colony formation (clonogenic) assay, MDA-MB-231. It counts as cell-based, human. To be noted: 10 days; for inhibitory effect on the formation of colonies: MDA-MB-231, concentration 2 μM. The procedure: (§2) The influence of glycosides on colony formation by MCF-7 or MDA-MB-231 cells was tested by the clonogenic assay. Cell density: 1 × 10^3 for MDA-MB-231 and 0.3 × 10^3 for MCF-7 cells per well; cell culture: MEM media, 10% FBS, 10,000 U/mL of penicillin, and 10,000 μg/mL of streptomycin supplemented or not (control) with different concentration of glycosides; incubation conditions: 10 days, 37 °C, atmosphere with 5% CO2; obtained: visible to eye colonies (at least 50 cells per colony); fixation with methanol (25 min); staining with 0.5% solution of crystal violet (25 min); washing and air-drying of plates.

Data set [7] has as its system MCF-7 cells. In words: Colony formation (clonogenic) assay, MCF-7. To be noted: MCF-7, concentration 2 μM, 10 days. In kind it is cell-based, human. The procedure:
as §2

For data set [8], the system named is MCF-7 cells. In words: Wound scratch migration assay, MCF-7. It counts as cell-based, human. The settings on record: MCF-7, concentrations below EC50, 72 h. The procedure:
as §1

[9] abbreviates: Homo sapiens, MCF7, MTT, 24 h incubation.
Setting [10] is: MDA-MB-231, MTT, 24 h incubation.

`COC1C(O)C(COS(=O)(=O)O)OC(OC2C(O)C(COS(=O)(=O)O)OC(OC3C(C)OC(OC4C(OC5CCC6(C)C7=CCC8(C)C(C(C)=O)CCC8(C)C7CCC6C5(C)C)OCC(OS(=O)(=O)O)C4O)C(OC4OCC(O)C(O)C4O)C3O)C2O)C1O` (stereo not drawn) (hydrate or solvate) [isokoreoside A] gave a melting point of 215 °C.

On to `COC1C(O)C(CO)OC(OC2C(O)C(CO)OC(OC3C(C)OC(OC4C(OC5CCC6(C)C7CCC89C(=O)OC(C)(CC(=O)CC(C)C)C8C(OC(C)=O)CC9(C)C7=CCC6C5(C)C)OCC(OS(=O)(=O)O)C4O)C(OC4OCC(O)C(O)C4O)C3O)C2O)C1O` (stereo not drawn) [cucumarioside A2-5], for which, in the data set with human erythrocytes, the HC50 came to 1.63 ± 0.13 µM. In addition, the IC50 in “in vitro” was 14 ± 1.03 µM; in data set [1] (setting [9]) it was 25.7 ± 1.49 µM; in data set [2] (MTT, 24 h incubation), 5.81 ± 0.86 µM; in data set [3] (setting [10]) it was 2580 ± 100 nM. Moreover, the “Selectivity Index (SI), MCF-7” value in data set [1] was 0.55. Also, the “Selectivity Index (SI), T-47D” value in [2] (ratio of IC50 for healthy (MCF-10A) and cancer cells) came out at 2.41. Also, the “Selectivity Index (SI), MDA-MB-231” value in data set [3] was 5.43. The “inhibition of cell migration (scratch assay)” value in the data set with MDA-MB-231 cells [4] (1 µM) is “about 85 % as compared to the control”; in the data set on MDA-MB-231 cells [4] (listed as Cucumarioside A2-5, 1 µM) it was 85 % as compared to the control. The “cytotoxicity on prolonged incubation (in words)” value in [5] (incubation for 48 and 72 h, 1 on MDA-MB-231, 6 on T-47D and MDA-MB-231) was “did not lose cytotoxicity over time”.

Turning to `COC1C(O)C(CO)OC(OC2C(O)C(COS(=O)(=O)O)OC(OC3C(C)OC(OC4C(OC5CCC6(C)C7CCC8(C)C(C(C)=O)CCC8(C)C7=CCC6C5(C)C)OCC(OS(=O)(=O)O)C4O)C(OC4OCC(O)C(O)C4O)C3O)C2O)C1O` (stereo not drawn) [cucumarioside A3-2], the HC50 in the data set with human erythrocytes worked out at 17.9 ± 0.48 µM. Further, the “hemolytic activity (in words)” value in the data set on human erythrocytes is “moderate hemolytic activity; also recorded: low hemolytic activity”. The IC50 in the data set “in vitro” is over 50 µM; in data set [1] (setting [9]), over 50 µM; in data set [2] (MTT, 24 h incubation), over 50 µM; in data set [3] (setting [10]) it was over 50000 nM. The “cytotoxic activity against human tumor cell lines (in words)” value in data set [5] (MCF-7, T-47D, MDA-MB-231, concentration range up to 50 µM) is “not active”.

For the compound `C=C(C)CCCC1(C)OC(=O)C23CCC4C(=CCC5C(C)(C)C(OC6OCC(OS(=O)(=O)O)C(O)C6OC6OCC(OC7OC(CO)C(O)C(OC8OC(CO)C(O)C(OC)C8O)C7O)C(O)C6OC6OCC(O)C(O)C6O)CCC45C)C2(C)CC(OC(C)=O)C13` [djakonovioside C1, 3β-O-{3-O-methyl-β-D-glucopyranosyl-(1→3)-β-D-glucopyranosyl-(1→4)-[(1→2)-β-D-xylopyranosyl]-β-D-xylopyranosyl-(1→2)-4-O-sodium sulfate-β-D-xylopyranosyl}-16β-acetoxyholosta-7,25-dien], the HC50 in the data set with human erythrocytes turned out to be 8.55 ± 0.04 µM. Further, the “hemolytic activity (in words)” value in the data set on human erythrocytes (listed as Djakonovioside C1) is recorded as “slightly lower activity”. Also, the IC50 at 24 h in “in vitro” was determined as 21.8 ± 0.72 µM. Also, the IC50 is 38.6 ± 2.36 µM in data set [1] (Homo sapiens, MCF7, 24 h); 16.8 ± 0.76 µM in [2] (24 h); 7670 ± 320 nM in data set [3] (MDA-MB-231, 24 h). In addition, the “Selectivity Index (SI), MCF-7” value in data set [1] is 0.56. Further, the “Selectivity Index (SI), MDA-MB-231” value in data set [3] is given as 2.84. The “inhibitory effect on the formation and growth of colonies” value in the data set on MDA-MB-231 cells [6] (MDA-MB-231, concentration 1 μM) is “approximately 25 % of the control”. For the same compound, in the data set on MDA-MB-231 cells [6], the “inhibitory effect on the formation of colonies” value is “approximately 25 % of the control”. For the same compound, the “cytotoxicity on prolonged incubation (in words)” value in data set [5] was “did not lose cytotoxicity over time”.

Take `C=C(C)CCCC1(C)OC(=O)C23CCC4C(=CCC5C(C)(C)C(OC6OCC(OS(=O)(=O)O)C(O)C6OC6OC(CO)C(OC7OC(COS(=O)(=O)O)C(O)C(OC8OC(COS(=O)(=O)O)C(O)C(OC)C8O)C7O)C(O)C6O)CCC45C)C2(C)CC(OC(C)=O)C13` [djakonovioside E1, 3β-O-[6-O-sodium sulfate-3-O-methyl-β-D-glucopyranosyl-(1→3)-6-O-sodium sulfate-β-D-glucopyranosyl-(1→4)-β-D-glucopyranosyl-(1→2)-4-O-sodium sulfate-β-D-xylopyranosyl]-16β-acetoxyholosta-7,25-dien]: the HC50 in the data set on human erythrocytes stood at 21.7 ± 0.94 µM. Moreover, the “hemolytic activity (in words)” value with human erythrocytes was “weakly hemolytic; also recorded: low hemolytic activity”. The compound further yielded an IC50 at 24 h in “in vitro” of over 50 µM. The IC50 was 1.52 ± 0.14 µM in data set [1] (Homo sapiens, MCF7, 24 h); over 50 µM in data set [2] (24 h); 2190 ± 170 nM in data set [3] (MDA-MB-231, 24 h). Further, the 50% effective concentration (EC50) in [1] (Homo sapiens, MCF7, MTT, 48 h incubation, read-out: EC50, MCF-7 cells, 48 h incubation (antiproliferative effect)) came out at 780 ± 320 nM. Also, in data set [1], the “Selectivity Index (SI), MCF-7” value is reported as over 32.89. Moreover, the “Selectivity Index (SI), MDA-MB-231” value in data set [3] was over 22.83. In addition, the “inhibitory effect on the formation of colonies” value with MDA-MB-231 cells [6] is on record as 35.68 ± 2.00 % of the control; with MCF-7 cells [7], 30.73 ± 0.49 % of the control. In the data set with MCF-7 cells [8], the “migration of MCF-7 cells (in words)” value is recorded as “reliable blockage of the migration”.
